Columns and labels:
[1] = system: Botrytis cinerea; assay: In vivo assay of vaporized pyrimethanil to inhibit Botrytis cinerea in blueberries; conditions: for Gray Mold Severity (0-4): scale 0 no disease to 4 exceptionally high
Text: An in vivo assay was used to evaluate the ability of vaporized pyrimethanil to control pathogenic infection of blueberries by Botrytis cinerea.

[2] = system: Penicillium digitatum; assay: In vivo assay of vaporized pyrimethanil to inhibit Penicillium digitatum in oranges
Experimental: An in vivo assay was used to evaluate the ability of vaporized pyrimethanil to control pathogenic infection of oranges by Penicillium digitatum. […] Each wound was then inoculated with 30 μL of 1×10^6 spores/mL suspension of P. digitatum.
Fruits were evaluated in order to observe growth of water-soaked lesions and fungal sporulation diameter (both measured in millimeters, mm).

[3] = system: Penicillium expansum; assay: Drenching vs. vaporizing treatments of apples, browning; assay type: in vivo; conditions: for Percent (%) Inhibition of Internal Browning: apples stored nine weeks at 1° C.
Experimental: An in vivo assay was used to evaluate the ability of vaporized pyrimethanil to control pathogenic infection of apples by Penicillium expansum as compared to drenching methods of apple treatment. Vaporized treatments of apples were performed as previous described in Examples 1-6, with the exception of using a 1 m wide×1 m high×8 m deep tunnel (see FIG. 11). […] In addition, drenching treatments comprising a final concentration of 125 mg/L, 500 mg/L, and 2000 mg/L of pyrimethanil active ingredient were also prepared. Fruits were stored for nine weeks at 1° C., and evaluated in order to observe and/or determine the area of browning on the fruit (see FIG. 22) and the percent of browning inhibition (see Table 7).

[4] = Agriphar Pyrimethanil (ISO) Safety Data Sheet; cited from earlier work
[5] = system: Botrytis cinerea; assay: In vivo assay of vaporized pyrimethanil to inhibit Botrytis cinerea in grapes; conditions: for Gray Mold Severity (0-4): scale 0 no disease to 4 exceptionally high
Text: An in vivo assay was used to evaluate the ability of vaporized pyrimethanil to control pathogenic infection of Table grapes by Botrytis cinerea.

[6] = Particle size estimate from settling of fogged or vaporized pyrimethanil on Petri plates (HPLC); assay type: physicochemical; conditions: for estimated pyrimethanil particle size: vaporized
[7] = assay type: physicochemical
Experimental: This example relates to experiments performed to determine if degradation of pyrimethanil technical compounds observed at high temperatures was due to evaporation. In the present example, seven milligrams (7 mg) of pyrimethanil compounds 1 and 2 were analyzed in air by Thermo Gravity Analysis-Mass Spectrometry (TGA-MS). The pyrimethanil samples were loaded onto a TGA platinum pan of the Q5000 TGA instrument (TA instruments) and using standard TGA test methods as follows: select gas 2 (air), data storage on, ramp at 5° C. per minute to 100° C., isothermal for 180 mins, data storage off, equilibrate at 60° C., and end method. An isothermal method was also performed according to standard methods.
The TGA furnace was closed and purged with helium, then heated from room temperature to about 300° C. at 10° C. per minute. […] An isothermal method was also performed according to standard methods.

[8] = 0.01 mg/L, Day 0 (after 3 days at 21° C.)
[9] = 0.01 mg/L, Day 1 (after 3 days at 21° C.)
[10] = 0.01 mg/L, Day 2 (after 3 days at 21° C.)
[11] = 0.01 mg/L, Day 3 (after 3 days at 21° C.)
[12] = 0.03 mg/L, Day 0 (after 3 days at 21° C.)
[13] = 0.03 mg/L, Day 1 (after 3 days at 21° C.)
[14] = 0.03 mg/L, Day 2 (after 3 days at 21° C.)
[15] = 0.03 mg/L, Day 3 (after 3 days at 21° C.)
[16] = 0.1 mg/L, Day 0 (after 3 days at 21° C.)
[17] = 0.1 mg/L, Day 1 (after 3 days at 21° C.)
[18] = 0.1 mg/L, Day 2 (after 3 days at 21° C.)
[19] = 0.1 mg/L, Day 3 (after 3 days at 21° C.)
[20] = 0.3 mg/L, Day 0 (after 3 days at 21° C.)
[21] = 0.3 mg/L, Day 1 (after 3 days at 21° C.)
[22] = 0.3 mg/L, Day 2 (after 3 days at 21° C.)
[23] = 0.3 mg/L, Day 3 (after 3 days at 21° C.)
[24] = 0.04 mg/L, Day 0 (after 3 days at 21° C.)
[25] = 0.04 mg/L, Day 1 (after 3 days at 21° C.)
[26] = 0.04 mg/L, Day 2 (after 3 days at 21° C.)
[27] = 0.2 mg/L, Day 0 (after 3 days at 21° C.)
[28] = 0.2 mg/L, Day 1 (after 3 days at 21° C.)
[29] = 0.2 mg/L, Day 2 (after 3 days at 21° C.)
[30] = 1 mg/L, Day 0 (after 3 days at 21° C.)
[31] = 1 mg/L, Day 1 (after 3 days at 21° C.)
[32] = 1 mg/L, Day 2 (after 3 days at 21° C.)

Cc1cc(C)nc(Nc2ccccc2)n1 [pyrimethanil, 4,6-Dimethyl-N-phenylpyrimidin-2-amine]
Gray Mold Incidence (%) [1, 8]: 92.6% | Gray Mold Severity (0-4) [1, 8]: 0.9 | Gray Mold Incidence (%) [1, 9]: 96.3% | Gray Mold Severity (0-4) [1, 9]: 1.1 | Gray Mold Incidence (%) [1, 10]: 98.8% | Gray Mold Severity (0-4) [1, 10]: 1.4 | Gray Mold Incidence (%) [1, 11]: 98.8% | Gray Mold Severity (0-4) [1, 11]: 2.1 | Gray Mold Incidence (%) [1, 12]: 82.7% | Gray Mold Severity (0-4) [1, 12]: 0.7 | Gray Mold Incidence (%) [1, 13]: 97.5% | Gray Mold Severity (0-4) [1, 13]: 1.1 | Gray Mold Incidence (%) [1, 14]: 97.5% | Gray Mold Severity (0-4) [1, 14]: 1.3 | Gray Mold Incidence (%) [1, 15]: 97.5% | Gray Mold Severity (0-4) [1, 15]: 1.7 | Gray Mold Incidence (%) [1, 16]: 64.2% | Gray Mold Severity (0-4) [1, 16]: 0.5 | Gray Mold Incidence (%) [1, 17]: 87.8% | Gray Mold Severity (0-4) [1, 17]: 0.9 | Gray Mold Incidence (%) [1, 18]: 94.8% | Gray Mold Severity (0-4) [1, 18]: 1.1 | Gray Mold Incidence (%) [1, 19]: 94.6% | Gray Mold Severity (0-4) [1, 19]: 1.7 | Gray Mold Incidence (%) [1, 20]: 22.2% | Gray Mold Severity (0-4) [1, 20]: 0.2 | Gray Mold Incidence (%) [1, 21]: 33.8% | Gray Mold Severity (0-4) [1, 21]: 0.2 | Gray Mold Incidence (%) [1, 22]: 51.2% | Gray Mold Severity (0-4) [1, 22]: 0.3 | Gray Mold Incidence (%) [1, 23]: 52.0% | Gray Mold Severity (0-4) [1, 23]: 0.3 | Fungal Sporulation (mm) [2, 24]: 1.1 mm | Water soaked Lesion (mm) [2, 24]: 0.0 mm | Fungal Sporulation (mm) [2, 25]: 1.4 mm | Water soaked Lesion (mm) [2, 25]: 0.0 mm | Fungal Sporulation (mm) [2, 26]: 2.1 mm | Water soaked Lesion (mm) [2, 26]: 0.0 mm | Fungal Sporulation (mm) [2, 27]: 0.6 mm | Water soaked Lesion (mm) [2, 27]: 0.0 mm | Fungal Sporulation (mm) [2, 28]: 0.8 mm | Water soaked Lesion (mm) [2, 28]: 0.0 mm | Fungal Sporulation (mm) [2, 29]: 2.4 mm | Water soaked Lesion (mm) [2, 29]: 1.5 mm | Fungal Sporulation (mm) [2, 30]: 1.8 mm | Water soaked Lesion (mm) [2, 30]: 0.0 mm | Fungal Sporulation (mm) [2, 31]: 2.0 mm | Water soaked Lesion (mm) [2, 31]: 0.0 mm | Fungal Sporulation (mm) [2, 32]: 2.1 mm | Water soaked Lesion (mm) [2, 32]: 0.0 mm | Percent (%) Inhibition of Internal Browning ([3]; DRENCH, Treatment Rate 500 mg/L): 47% | Percent (%) Inhibition of Internal Browning ([3]; DRENCH, Treatment Rate 2,000 mg/L): 69% | Percent (%) Inhibition of Internal Browning ([3]; VAPOR, Treatment Rate 0.5 mg/L): 96% | Percent (%) Inhibition of Internal Browning ([3]; VAPOR, Treatment Rate 2 mg/L): 100% | area of browning, vaporized compared with drenched ([3]; apples treated in a preventative manner, nine weeks at 1° C., FIG. 22): less area (mm) of browning | known thermal decomposition range [4]: 189.54-344.74 °C | Gray Mold Incidence (%) [5, 8]: 100.0% | Gray Mold Severity (0-4) [5, 8]: 1.6 | Gray Mold Incidence (%) [5, 9]: 100.0% | Gray Mold Severity (0-4) [5, 9]: 2.0 | Gray Mold Incidence (%) [5, 10]: 100.0% | Gray Mold Severity (0-4) [5, 10]: 2.0 | Gray Mold Incidence (%) [5, 11]: 100.0% | Gray Mold Severity (0-4) [5, 11]: 3.6 | Gray Mold Incidence (%) [5, 12]: 100.0% | Gray Mold Severity (0-4) [5, 12]: 1.4 | Gray Mold Incidence (%) [5, 13]: 100.0% | Gray Mold Severity (0-4) [5, 13]: 2.0 | Gray Mold Incidence (%) [5, 14]: 100.0% | Gray Mold Severity (0-4) [5, 14]: 2.0 | Gray Mold Incidence (%) [5, 15]: 100.0% | Gray Mold Severity (0-4) [5, 15]: 3.4 | Gray Mold Incidence (%) [5, 16]: 94.4% | Gray Mold Severity (0-4) [5, 16]: 0.5 | Gray Mold Incidence (%) [5, 17]: 98.1% | Gray Mold Severity (0-4) [5, 17]: 0.7 | Gray Mold Incidence (%) [5, 18]: 98.1% | Gray Mold Severity (0-4) [5, 18]: 1.1 | Gray Mold Incidence (%) [5, 19]: 98.1% | Gray Mold Severity (0-4) [5, 19]: 1.8 | Gray Mold Incidence (%) [5, 20]: 16.7% | Gray Mold Severity (0-4) [5, 20]: 0.1 | Gray Mold Incidence (%) [5, 21]: 94.4% | Gray Mold Severity (0-4) [5, 21]: 0.5 | Gray Mold Incidence (%) [5, 22]: 94.4% | Gray Mold Severity (0-4) [5, 22]: 0.8 | Gray Mold Incidence (%) [5, 23]: 100.0% | Gray Mold Severity (0-4) [5, 23]: 1.3 | percent of total pyrimethanil settled on the plates ([6]; FOG (MeOH + PYR), Settling Time 7.5 Minutes, Particle Size 5.9 (μm)): 61% | percent of total pyrimethanil settled on the plates ([6]; FOG (MeOH + PYR), Settling Time 15 Minutes, Particle Size 4.1 (μm)): 77% | percent of total pyrimethanil settled on the plates ([6]; FOG (MeOH + PYR), Settling Time 30 Minutes, Particle Size 2.8 (μm)): 100% | percent of total pyrimethanil settled on the plates ([6]; FOG (MeOH + PYR), Settling Time 60 Minutes, Particle Size 1.9 (μm)): 100% | percent of total pyrimethanil settled on the plates ([6]; FOG (MeOH + PYR), Settling Time 360 Minutes, Particle Size 0.75 (μm)): 100% | percent of total pyrimethanil settled on the plates ([6]; VAPOR (100% Technical PYR), Settling Time 60 Minutes, Particle Size 1.9 (μm)): 26% | percent of total pyrimethanil settled on the plates ([6]; VAPOR (100% Technical PYR), Settling Time 360 Minutes, Particle Size 0.75 (μm)): 91% | particle size ([6]; fog particles, 100% settled after 30 minutes): approximately 2.8 micron | estimated pyrimethanil particle size ([6]; 26% settled after 60 minutes): 1.9 micron | estimated pyrimethanil particle size ([6]; 91% settled after 360 minutes): 0.75 micron | thermal degradation [7]: no thermal degradation
